Entries after “also recorded” stand apart in the source; their conditions may differ.
Key:
SH-SY5Y cells = experiment: Mitochondrial ROS (Mito-SOX) in SH-SY5Y cells; type: cell-based
Description: (§1) Cells cultured on coverslips or 24-well plates were washed with DPBS and then incubated with 5 µM Mito-SOX™ Red (Invitrogen, M36008), a mitochondrial superoxide indicator, for 10 min at 37 °C. For cells cultured on coverslips, the images were visualized by microscope, and quantification of images was then carried out using NIH ImageJ software. At least 100 cells per group were counted in the analysis.
The bimolecular fluorescence was examined 24-hour after transfection (n = 3, one-way ANOVA with Tukey’s post-hoc test, scale bar = 30 μm). (D) Quantification of the concentration (ng/ml) of extracellular αSyn monomer and oligomer, and intracellular αSyn oligomer in Tet-inducible SH-SY5Y cells that were pre-treated with TAT or CS2 peptide 30-minute before adding doxycycline (Dox) to induce αSyn expression. The concentration of αSyn species was determined by ELISA (n = 4, one-way ANOVA with Tukey’s post-hoc test; data are mean ± SEM). (E) Representative images of Mito-SOX staining in SH-SY5Y cells that were pre-treated with TAT or CS2 peptide and transfected with split Venus-αSyn vectors. Mitochondrial ROS production was determined by Mito-SOX staining after 24-hour transfection (n = 4, two-tailed Student’s t test, scale bar = 30 μm).

mThy1-hSNCA mice = experiment: Rotarod test in mThy1-hSNCA mice; type: in vivo, mouse; settings: 3 mg/kg/day s.c.; age of 10-month; n = 13–15 mice/group; vs TAT
Description: C57BL/6 N-Tg (Thy1-SNCA)15Mjff/J (JAX: 017682) breeders (C57Bl/6NJ genetic background) were purchased from Jackson Laboratories. The mice were mated, bred, and genotyped in the animal facility of Case Western Reserve University. All mice were maintained at a 12-hour light/dark cycle (on 6 am, off 6 pm). All randomization and peptide treatments in mThy1-hSNCA mice were prepared by an experimenter not associated with the behavioral and neuropathology analysis. Only male mice were used in the study. mThy1-hSNCA transgenic mice and their age-matched WT littermates were implanted with a 28-day subcutaneous osmotic pump (Alzet, Cupertino CA, Model 2004) containing either TAT control peptide or CS2 peptide, which delivered the peptides at indicated rate (1 or 3 or 10 mg/kg/day). The pump was replaced once every four weeks. All mice were sacrificed at age of 10-month for neuropathology assessment.
Mice were trained for the accelerating test on Day 1–3. On Day 5, motor coordination was assessed in TAT or CS2 treated mThy1-hSNCA transgenic mice and their age-matched wild-type littermates at age of 10-month, by measuring latency on a rotarod in an accelerated program for 300 s. Body weights of mThy1-hSNCA mice and wild-type littermates were recorded throughout the study period.
Fig. 7 CS2 treatment is protective in mThy1-hSNCA mouse model of PD. […]

ClpP (SH-SY5Y cells) = experiment: ClpP protein level, western blot, SH-SY5Y cells; type: cell-based
[1] = system: αSyn-PFF-inoculated primary cortical neurons; experiment: Mitochondrial function (Mito-SOX, TMRM, ATP) in αSyn-PFF-inoculated primary cortical neurons; type: cell-based, mouse; settings: 1 µM daily
Description: Primary cortical neurons were isolated from normal E18 mouse cortex (sex undetermined) and cultured using complete culturing kit (cat#: KTC57ECX, TransnetYX Tissue). Briefly, 100,000 cells were seeded on poly-D-lysine coated glass coverslips (PDL15mm, TransnetYX Tissue) and cultured in NbActiv1 medium (NB1, TransnetYX Tissue). Neurons were treated with sonicated human α-Syn-PFF (SPR-322, StressMarq Biosciences) starting on post-seeding Day 5 till Day 14. Starting from post-seeding Day 9, TAT or CS2 peptide was added daily at 1µM. Neurons were fixed on Day 14 and subjected for experiments.
as §1
Cells cultured on coverslips or 24-well plates were washed with DPBS and then incubated with 0.25 µM Tetramethylrhodamine, methyl ester (TMRM) (Invitrogen, T668), for 20 min at 37 °C. For cells cultured on coverslips, the images were visualized by microscope, and quantification of images was then carried out using NIH Fiji ImageJ software. At least 100 cells per group were counted in the analysis.
Cells were seeded in 24-well plates, followed by the indicated treatment. The ATP level in each well was determined using the ATP assay kit according to the manufacturer’s procedures (Cayman Chemical, 700410).

Question: What does the source list for `CC(C)[C@H](NC(=O)CNC(=O)CNC(=O)CCCCCNC(=O)[C@H](CCCNC(=N)N)NC(=O)[C@H](CCCNC(=N)N)NC(=O)[C@H](CCCNC(=N)N)NC(=O)[C@H](CCC(N)=O)NC(=O)[C@H](CCCNC(=N)N)NC(=O)[C@H](CCCNC(=N)N)NC(=O)[C@H](CCCCN)NC(=O)[C@H](CCCCN)NC(=O)[C@H](CCCNC(=N)N)NC(=O)CNC(=O)[C@@H](N)Cc1ccc(O)cc1)C(=O)N[C@H](C(=O)N[C@H](C(=O)N[C@@H](C)C(=O)O)[C@@H](C)O)C(C)C` [CS2, TAT-C6-GGVVTA]?
Answer: mitochondrial ROS, ClpP-deficient cells (SH-SY5Y cells; ClpPsh SH-SY5Y overexpressing αSyn, effect of reducing ROS, n = 13 areas/group): no protective effect; also recorded: not observed in ClpP-deficient cells; mitochondrial ROS (Mito-SOX intensity) (SH-SY5Y cells; SH-SY5Y expressing VN/VC-αSyn (CS1: WT αSyn), Mito-SOX 5 µM, vs TAT): significant reduction of the fluorescence intensity of Mito-SOX; motor coordination on rotarod (latency to fall) (mThy1-hSNCA mice): enhanced motor coordination; ClpP level, Tet-inducible αSyn SH-SY5Y (ClpP (SH-SY5Y cells); Tet-inducible αSyn-expressing SH-SY5Y, vs TAT, n = 3): marked increase in ClpP levels; ClpP protein level, SH-SY5Y (ClpP (SH-SY5Y cells); WT or A53T αSyn overexpression, 30 min pretreatment, n = 4–5 (CS1: n = 4)): significantly restored ClpP protein levels; ATP content, PFF neurons ([1]; n = 4): rescued mitochondrial membrane potential and ATP content; mitochondrial ROS, PFF neurons ([1]; Mito-SOX, n = 90-100 neurons per group): reduced mitochondrial ROS; mitochondrial membrane potential, PFF neurons ([1]; TMRM, n = 90-100 neurons per group): rescued mitochondrial membrane potential

From PMC12751141, “Disrupting α-Synuclein–ClpP interaction restores mitochondrial function and attenuates neuropathology in Parkinson’s disease models” (Molecular Neurodegeneration, 2025)
